Results: patent US8580821B2, “Serotonin transporter (SERT) inhibitors for the treatment of depression and anxiety” (Hoffmann-La Roche Inc., priority 2006, dated 2013)
Where a name gives a salt, the structure may show the parent alone. Read-outs that look alike come from different tables or passages of the source.

Key:
recombinant human SERT = target: T1, recombinant human SERT (Homo sapiens, UniProt P31645); assay: hSERT SPA binding assay ([3H]citalopram displacement, HEK-293 membranes)
T1 construct: expressed in transfected cells
Description: HEK-293 cells stably expressing recombinant human SERT are maintained with DMEM high glucose with 10% FBS, 300 μg/ml G418 and 2 mM L-Glutamine and incubated at 37° C. with 5% CO2. Cells are released from culture flasks using PBS for 1-2 min. The cells are subsequently centrifuged at 1000 g's for 5 min and resuspended in PBS prior to being used in the membrane preparation.
Cells are homogenized using a Polytron in 50 mM Tris (pH 7.4). Centrifuged at 48,000×g for 15 min, and the pellet resuspended in fresh buffer. After a second centrifugation, the pellet is re-homogenized and resuspended in fresh buffer. Typically, membrane portions are aliquoted in 3 mg/ml (w:v). and stored at 80° C.
A serial dilution of test compounds in 50 mM Tris-HCl, 120 mM NaCl, KCl 5 mM (pH 7.4) is made in a white Optiplate (Packard) (100 μl/well) and the radioligand ^3[H] Citalopram (Specific activity: 60-86 Ci/mmol, Final concentration: 1 nM) is added at 50 μl/well. Membrane and beads are prepared to a ratio of 5 μg:0.6 mg, with 0.6 mg PVT-WGA Amersham beads (Cat# RPQ0282V) added per well. 50 μl of the membrane/bead mixture is added to the assay plate for a final volume of 200 μl. The mixtures are allowed to stand at room temperature for one hour, and are then counted on a Packard TopCount.
The inhibition dissociation constant (Ki) of each compound is determined according to the method of Cheng-Prusoff.

human NK-1 receptor = target: T2, human NK-1 receptor (Homo sapiens, UniProt P25103); assay: hNK-1 binding assay ([3H]substance P displacement, transfected CHO cells)
T2 construct: expressed in transfected cells; host or cells: CHO cells, Semliki virus expression system; membrane suspension
Description: The affinity of test compounds for the NK-1 receptor was evaluated at human NK-1 receptors in CHO cells transfected with the human NK-1 receptor using the Semliki virus expression system and radiolabelled with [^3H]substance P (final concentration 0.6 nM). Binding assays were performed in HEPES buffer (50 mM, pH 7.4) containing BSA (0.04%) leupeptin (8 μg/ml), MnCl2 (3 mM) and phosphoramidon (2 μM). Binding assays consisted of 250 μl of membrane suspension (1.25×10^5 cells/assay tube), 125 μl of buffer of displacing agent and 125 μl of [^3H]substance P. Displacement curves were determined with at least ten concentrations of the compound. The assay tubes were incubated for 60 min at room temperature after which time the tube contents were rapidly filtered under vacuum through GF/C filters presoaked for 60 min with PEI (0.3%) with 2×2 ml washes of HEPES buffer (50 mM, pH 7.4). The radioactivity retained on the filters was measured by scintillation counting. All assays were performed in duplicate in at least 2 separate experiments.
The inhibition dissociation constant (Ki) of each compound for NK1 is determined as described above for hSERT.

[1] = read-out: pKi hSERT (converted)
[2] = [3H]substance P 0.6 nM, CHO cells transfected with human NK-1 receptor, read-out: pKi hNK1 (converted)

T2 sequence (P25103 whole entry): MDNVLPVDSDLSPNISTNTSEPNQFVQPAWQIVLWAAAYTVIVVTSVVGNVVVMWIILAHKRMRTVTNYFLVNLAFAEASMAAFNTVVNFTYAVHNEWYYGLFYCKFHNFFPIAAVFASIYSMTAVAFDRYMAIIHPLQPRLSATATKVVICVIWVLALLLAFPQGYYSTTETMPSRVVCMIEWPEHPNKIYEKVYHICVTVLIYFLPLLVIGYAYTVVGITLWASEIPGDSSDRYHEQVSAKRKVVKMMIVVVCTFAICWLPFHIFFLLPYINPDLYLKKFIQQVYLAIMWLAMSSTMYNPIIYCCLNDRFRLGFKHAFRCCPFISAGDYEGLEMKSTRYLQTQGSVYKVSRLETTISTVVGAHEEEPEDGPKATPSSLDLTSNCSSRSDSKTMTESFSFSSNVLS
T1 sequence (P31645 whole entry): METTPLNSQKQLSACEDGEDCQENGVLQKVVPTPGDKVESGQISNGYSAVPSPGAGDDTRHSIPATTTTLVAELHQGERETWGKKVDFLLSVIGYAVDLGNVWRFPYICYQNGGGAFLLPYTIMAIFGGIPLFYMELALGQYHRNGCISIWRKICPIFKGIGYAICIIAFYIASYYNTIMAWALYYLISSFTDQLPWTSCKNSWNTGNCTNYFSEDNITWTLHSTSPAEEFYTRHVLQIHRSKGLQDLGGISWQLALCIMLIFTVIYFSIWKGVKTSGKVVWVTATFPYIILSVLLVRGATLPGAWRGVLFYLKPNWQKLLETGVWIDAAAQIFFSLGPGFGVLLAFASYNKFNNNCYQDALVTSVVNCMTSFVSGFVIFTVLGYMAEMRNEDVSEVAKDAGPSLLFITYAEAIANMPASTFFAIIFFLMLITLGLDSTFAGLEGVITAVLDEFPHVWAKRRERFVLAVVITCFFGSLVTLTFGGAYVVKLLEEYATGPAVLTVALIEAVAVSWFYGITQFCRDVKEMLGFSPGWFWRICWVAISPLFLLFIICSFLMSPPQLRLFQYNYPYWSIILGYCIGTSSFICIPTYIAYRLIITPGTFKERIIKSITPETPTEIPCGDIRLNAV

Row | SMILES | Ki (recombinant human SERT; [1]) | Ki (human NK-1 receptor; [2]) | Ki (human NK-1 receptor) | Ki (recombinant human SERT)
1 | N#CCN1CC[C@@H](c2ccc(F)cc2)[C@H](COCc2cc(C(F)(F)F)cc(C(F)(F)F)c2)C1 [Example 3 of I, (−)-[(3S,4R)-3-(3,5-Bis-trifluoromethyl-benzyloxymethyl)-4-(4-fluoro-phenyl)-piperidin-1-yl]-acetonitrile] | 141 nM | 21.4 nM |  | 
2 | Cc1ccccc1C1=C(COCc2cc(C(F)(F)F)cc(C(F)(F)F)c2)CNCC1 [Example 7 of I, 5-(3,5-Bis-trifluoromethyl-benzyloxymethyl)-4-o-tolyl-1,2,3,6-tetrahydro-pyridine hydrochloride] | 32.4 nM |  | 3.16 nM | 
3 | Fc1ccc([C@@H]2CCNC[C@H]2COCc2cccc(C(F)(F)F)c2)cc1 [Example 4 of I, (−)-(3S,4R)-4-(4-Fluoro-phenyl)-3-(3-trifluoromethyl-benzyloxymethyl)-piperidine hydrochloride] |  | 148 nM |  | 17 nM
4 | CN(Cc1cc(C(F)(F)F)cc(C(F)(F)F)c1)C[C@@H]1CNCC[C@H]1c1ccc(F)cc1 [Example 2 of III, reference compound] | 708 nM | 20.4 nM |  | 
5 | CN1CC[C@@H](c2ccc(F)cc2)[C@H](COCc2cc(C(F)(F)F)cc(C(F)(F)F)c2)C1 [Example 2 of I] | 107 nM | 8.13 nM |  | 
6 | Fc1ccc([C@@H]2CCNC[C@H]2COCc2cc(C(F)(F)F)cc(C(F)(F)F)c2)cc1 [Example 1 of I, (−)-(3S,4R)-3-(3,5-Bis-trifluoromethyl-benzyloxymethyl)-4-(4-fluoro-phenyl)-piperidine hydrochloride] | 6.17 nM |  | 12.6 nM | 
7 | Fc1ccc([C@@H]2CCNCC2CNCc2cc(C(F)(F)F)cc(C(F)(F)F)c2)cc1 (stereo partly shown) [Example 1 of III, reference compound] | 724 nM | 12.6 nM |  | 
8 | [O-][S+](Cc1cc(C(F)(F)F)cc(C(F)(F)F)c1)C[C@@H]1CNCC[C@H]1c1ccc(F)cc1 (stereo partly shown) [Example 2 of II, reference compound] | 3020 nM | 63.1 nM |  | 

Continued, in another order:

Row | Ki (recombinant human SERT; [1]) | Ki (human NK-1 receptor; [2]) | SMILES | Ki (human NK-1 receptor) | Ki (recombinant human SERT)
9 | 10000 nM | 13.8 nM | CC(=O)N(Cc1cc(C(F)(F)F)cc(C(F)(F)F)c1)C[C@@H]1CNCC[C@H]1c1ccc(F)cc1 [Example 3 of III, reference compound] |  | 
10 |  | 13.5 nM | O=S(=O)(Cc1cc(C(F)(F)F)cc(C(F)(F)F)c1)C[C@@H]1CNCC[C@H]1c1ccc(F)cc1 [Example 3 of II, reference compound] |  | 
11 | 11 nM | 8.91 nM | FC(F)(F)c1cc(COC[C@@H]2CNCC[C@H]2c2ccccc2)cc(C(F)(F)F)c1 (racemic) [Example 5 of I, (3SR,4RS)-3-(3,5-Bis-trifluoromethyl-benzyloxymethyl)-4-phenyl-piperidine hydrochloride] |  | 
12 | 32.4 nM | 24 nM | Cc1ccccc1[C@@H]1CCNC[C@H]1COCc1cc(C(F)(F)F)cc(C(F)(F)F)c1 (relative stereo) [Example 6 of I, (−)-(trans)-3-(3,5-Bis-trifluoromethyl-benzyloxymethyl)-4-o-tolyl-piperidine hydrochloride] |  | 
13 | 10000 nM | 30.2 nM | CS(=O)(=O)N(Cc1cc(C(F)(F)F)cc(C(F)(F)F)c1)C[C@@H]1CNCC[C@H]1c1ccc(F)cc1 [Example 4 of III, reference compound] |  | 
